Source: ChEMBL document CHEMBL4321794, “Discovery and Optimization of 2-Arylquinazolin-4-ones into a Potent and Selective Tankyrase Inhibitor Modulating Wnt Pathway Activity” (J Med Chem, 2019)
Activity calls are given as the source filed them. The rule behind the calls is not given here.

What was measured:
[1] = Time at which free-drug concentration exceeds in vitro cellular EC50 for inhibition of tankyrase 1/2 in human DLD1 cells assessed as increase in axin2 accumulation in mouse at 30 mg/kg, po; format: organism-based; conditions: in vivo
[2] = Half-life in mouse; format: ADME, organism-based; conditions: in vivo
[3] = Protein binding in mouse plasma assessed as unbound fraction at 30 mg/kg, po; format: ADME, organism-based
[4] = Intrinsic clearance in mouse liver microsomes assessed per mg protein in presence of NADPH by UPLC analysis; format: ADME, Microsome; conditions: read-out: CLH
[5] = target: T1, Protein mono-ADP-ribosyltransferase PARP11 (Homo sapiens, UniProt Q9NR21); test: Inhibition of human N-terminal GST-tagged PARP11 (8 to 338 residues) expressed in baculovirus infected Sf9 insect cells using biotinylated substrate by chemiluminescence method
T1 sequence (Q9NR21 whole entry): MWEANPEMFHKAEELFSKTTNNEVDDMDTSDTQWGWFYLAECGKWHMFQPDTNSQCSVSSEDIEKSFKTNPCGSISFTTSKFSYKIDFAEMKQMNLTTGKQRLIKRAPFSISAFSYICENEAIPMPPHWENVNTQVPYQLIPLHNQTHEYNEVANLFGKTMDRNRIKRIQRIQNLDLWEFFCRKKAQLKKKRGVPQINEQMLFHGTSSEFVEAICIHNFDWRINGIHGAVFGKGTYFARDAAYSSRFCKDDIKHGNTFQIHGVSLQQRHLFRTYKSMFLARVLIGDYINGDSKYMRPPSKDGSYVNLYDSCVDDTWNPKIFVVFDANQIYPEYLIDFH

[6] = Time at which free-drug concentration exceeds in vitro cellular EC50 for inhibition of tankyrase 1/2 in human DLD1 cells assessed as increase in axin2 accumulation in mouse xenografted with human DLD1 at 90 mg/kg, po administered via gavage; format: organism-based; conditions: in vivo
Mus musculus = test: Ex vivo inhibition of tankyrase 1/2 in human DLD1 cells xenografted in immunodeficient athymic nude mouse assessed as increase in axin-2 level in tumor lysates at 10 mg/kg, po administered via gavage measured after 12 hrs by luminex based bead assay; format: functional, organism-based; conditions: Neoplasm, Lysate
[7] = Clearance in mouse; format: ADME, organism-based; conditions: in vivo

T>fEC50 [1]: >= 20 hr | half-life [2]: 1.4 h | fraction unbound [3]: 0.086 | microsomal CLint [4]: 22 µL/min/mg | IC50 [5]: > 10 µM | T>fEC50 [6]: >= 12 hr | clearance [7]: 0.41 L/h/kg
SMILES: CC(C)(O)c1ccc(-c2nc3c(F)cc(F)cc3c(=O)[nH]2)cc1
inhibition (Mus musculus): Active
